Experimental data from ChEMBL document CHEMBL3885881, “DrugMatrix”.

Species: Rattus norvegicus
Experiment: DrugMatrix - Regimen: Daily Repeat
Assay type: toxicity, organism-based, Sprague-Dawley
Parameters: regimen Daily Repeat, gender Male, age 6-8 weeks
Conditions: in vivo, sc, route subcutaneous, […]; for ABSOLUTE BASOPHIL / ABSOLUTE EOSINOPHIL / ABSOLUTE LYMPHOCYTE / ABSOLUTE MONOCYTE / ABSOLUTE SEGMENTED NEUTROPHIL / BASOPHIL / EOSINOPHIL / ERYTHROCYTE COUNT / HEMATOCRIT / HEMOGLOBIN / LEUKOCYTE COUNT / LYMPHOCYTE / MEAN CORPUSCULAR HEMOGLOBIN / MEAN CORPUSCULAR HEMOGLOBIN CONCENTRATION / MEAN CORPUSCULAR VOLUME / MONOCYTE / NEUTROPHIL / NUCLEATED RED BLOOD CELLS / PLATELET COUNT: tissue Blood; for ALANINE AMINOTRANSFERASE / ALBUMIN / ALKALINE PHOSPHATASE / ASPARTATE AMINOTRANSFERASE / BLOOD UREA NITROGEN / CARBON DIOXIDE / CHLORIDE / CHOLESTEROL / CREATINE PHOSPHOKINASE / CREATININE / GLUCOSE / LACTATE DEHYDROGENASE / LIPASE / PHOSPHORUS / POTASSIUM / SODIUM / TOTAL BILIRUBIN / TOTAL PROTEIN / URIC ACID: tissue Plasma
[1] = 0.4 mg/kg, 72 h, dose level Low, time 3 day
[2] = 0.4 mg/kg, 120 h, dose level Low, time 5 day
[3] = 4 mg/kg, 72 h, dose level High, time 3 day
[4] = 4 mg/kg, 120 h, dose level High, time 5 day

Q: What does the source list for COc1cc([C@@H]2c3cc4c(cc3[C@H](O)[C@H]3COC(=O)[C@H]23)OCO4)cc(OC)c1OC [PODOFILOX]?
A: ABSOLUTE BASOPHIL [1]: 0 CELLS/uL; ABSOLUTE EOSINOPHIL [1]: 46.67 CELLS/uL; ABSOLUTE LYMPHOCYTE [1]: 10326.67 CELLS/uL; ABSOLUTE MONOCYTE [1]: 246 CELLS/uL; ABSOLUTE SEGMENTED NEUTROPHIL [1]: 1114 CELLS/uL; BASOPHIL [1]: 0%; EOSINOPHIL [1]: 0.33%; ERYTHROCYTE COUNT [1]: 5.36 x10E6/uL; HEMATOCRIT [1]: 33.43%; HEMOGLOBIN [1]: 12.37 G/DL; LEUKOCYTE COUNT [1]: 11.73 x10E3/uL; LYMPHOCYTE [1]: 88.33%; MEAN CORPUSCULAR HEMOGLOBIN [1]: 23.07 pg; MEAN CORPUSCULAR HEMOGLOBIN CONCENTRATION [1]: 37 G/DL; MEAN CORPUSCULAR VOLUME [1]: 62.43 fL; MONOCYTE [1]: 2%; NEUTROPHIL [1]: 9.33%; NUCLEATED RED BLOOD CELLS [1]: 0 /100WBC; PLATELET COUNT [1]: 1280.67 x10E3/uL; ALANINE AMINOTRANSFERASE [1]: 44.33 u/L; ALBUMIN [1]: 3.33 G/DL; ALKALINE PHOSPHATASE [1]: 320.67 u/L; ASPARTATE AMINOTRANSFERASE [1]: 77.67 u/L; BLOOD UREA NITROGEN [1]: 16.33 mg/dL; CARBON DIOXIDE [1]: 27.33 mmol/L; CHLORIDE [1]: 104.67 MEQ/L; CHOLESTEROL [1]: 67.33 mg/dL; CREATINE PHOSPHOKINASE [1]: 222.67 u/L; CREATININE [1]: 0.2 mg/dL; GLUCOSE [1]: 162 mg/dL; LACTATE DEHYDROGENASE [1]: 146.67 u/L; LIPASE [1]: 8 u/L; PHOSPHORUS [1]: 12.87 mg/dL; POTASSIUM [1]: 6.48 MEQ/L; SODIUM [1]: 146.23 MEQ/L; TOTAL BILIRUBIN [1]: 0.2 mg/dL; TOTAL PROTEIN [1]: 5.23 G/DL; URIC ACID [1]: 1.53 mg/dL; ABSOLUTE BASOPHIL [2]: 0 CELLS/uL; ABSOLUTE EOSINOPHIL [2]: 0 CELLS/uL; ABSOLUTE LYMPHOCYTE [2]: 4413.33 CELLS/uL; ABSOLUTE MONOCYTE [2]: 17.67 CELLS/uL; ABSOLUTE SEGMENTED NEUTROPHIL [2]: 1569 CELLS/uL; BASOPHIL [2]: 0%; EOSINOPHIL [2]: 0%; ERYTHROCYTE COUNT [2]: 5.41 x10E6/uL; HEMATOCRIT [2]: 33.67%; HEMOGLOBIN [2]: 12.57 G/DL; LEUKOCYTE COUNT [2]: 6 x10E3/uL; LYMPHOCYTE [2]: 73.67%; MEAN CORPUSCULAR HEMOGLOBIN [2]: 23.23 pg; MEAN CORPUSCULAR HEMOGLOBIN CONCENTRATION [2]: 37.33 G/DL; MEAN CORPUSCULAR VOLUME [2]: 62.3 fL; MONOCYTE [2]: 0.33%; NEUTROPHIL [2]: 26%; NUCLEATED RED BLOOD CELLS [2]: 0.67 /100WBC; PLATELET COUNT [2]: 1853.33 x10E3/uL; ALANINE AMINOTRANSFERASE [2]: 44.33 u/L; ALBUMIN [2]: 4.03 G/DL; ALKALINE PHOSPHATASE [2]: 296.33 u/L; ASPARTATE AMINOTRANSFERASE [2]: 117 u/L; BLOOD UREA NITROGEN [2]: 19.33 mg/dL; CARBON DIOXIDE [2]: 26 mmol/L; CHLORIDE [2]: 105.67 MEQ/L; CHOLESTEROL [2]: 82.67 mg/dL; CREATINE PHOSPHOKINASE [2]: 843.33 u/L; CREATININE [2]: 0.2 mg/dL; GLUCOSE [2]: 187.33 mg/dL; LACTATE DEHYDROGENASE [2]: 167.67 u/L; LIPASE [2]: 8.67 u/L; PHOSPHORUS [2]: 11.4 mg/dL; POTASSIUM [2]: 6.97 MEQ/L; SODIUM [2]: 148.4 MEQ/L; TOTAL BILIRUBIN [2]: 0.1 mg/dL; TOTAL PROTEIN [2]: 6.7 G/DL; URIC ACID [2]: 2.73 mg/dL; ABSOLUTE BASOPHIL [3]: 0 CELLS/uL; ABSOLUTE EOSINOPHIL [3]: 70.67 CELLS/uL; ABSOLUTE LYMPHOCYTE [3]: 10536.33 CELLS/uL; ABSOLUTE MONOCYTE [3]: 257.67 CELLS/uL; ABSOLUTE SEGMENTED NEUTROPHIL [3]: 768.67 CELLS/uL; BASOPHIL [3]: 0%; EOSINOPHIL [3]: 0.67%; ERYTHROCYTE COUNT [3]: 4.67 x10E6/uL; HEMATOCRIT [3]: 29.03%; HEMOGLOBIN [3]: 11 G/DL; LEUKOCYTE COUNT [3]: 11.63 x10E3/uL; LYMPHOCYTE [3]: 90.33%; MEAN CORPUSCULAR HEMOGLOBIN [3]: 23.63 pg; MEAN CORPUSCULAR HEMOGLOBIN CONCENTRATION [3]: 37.93 G/DL; MEAN CORPUSCULAR VOLUME [3]: 62.43 fL; MONOCYTE [3]: 2.33%; NEUTROPHIL [3]: 6.67%; NUCLEATED RED BLOOD CELLS [3]: 0.67 /100WBC; PLATELET COUNT [3]: 1479.33 x10E3/uL; ALANINE AMINOTRANSFERASE [3]: 36 u/L; ALBUMIN [3]: 3.27 G/DL; ALKALINE PHOSPHATASE [3]: 238.33 u/L; ASPARTATE AMINOTRANSFERASE [3]: 81 u/L; BLOOD UREA NITROGEN [3]: 15.33 mg/dL; CARBON DIOXIDE [3]: 22.67 mmol/L; CHLORIDE [3]: 105.67 MEQ/L; CHOLESTEROL [3]: 61 mg/dL; CREATINE PHOSPHOKINASE [3]: 371.33 u/L; CREATININE [3]: 0.17 mg/dL; GLUCOSE [3]: 145 mg/dL; LACTATE DEHYDROGENASE [3]: 371.33 u/L; LIPASE [3]: 7.67 u/L; PHOSPHORUS [3]: 9.1 mg/dL; POTASSIUM [3]: 6.96 MEQ/L; SODIUM [3]: 144.97 MEQ/L; TOTAL BILIRUBIN [3]: 0.17 mg/dL; TOTAL PROTEIN [3]: 5.3 G/DL; URIC ACID [3]: 1.73 mg/dL; ABSOLUTE BASOPHIL [4]: 0 CELLS/uL; ABSOLUTE EOSINOPHIL [4]: 0 CELLS/uL; ABSOLUTE LYMPHOCYTE [4]: 6143.67 CELLS/uL; ABSOLUTE MONOCYTE [4]: 159 CELLS/uL; ABSOLUTE SEGMENTED NEUTROPHIL [4]: 330.67 CELLS/uL; BASOPHIL [4]: 0%; EOSINOPHIL [4]: 0%; ERYTHROCYTE COUNT [4]: 5.45 x10E6/uL; HEMATOCRIT [4]: 32.83%; HEMOGLOBIN [4]: 12.27 G/DL; LEUKOCYTE COUNT [4]: 6.63 x10E3/uL; LYMPHOCYTE [4]: 93%; MEAN CORPUSCULAR HEMOGLOBIN [4]: 22.5 pg; MEAN CORPUSCULAR HEMOGLOBIN CONCENTRATION [4]: 37.37 G/DL; MEAN CORPUSCULAR VOLUME [4]: 60.13 fL; MONOCYTE [4]: 2.33%; NEUTROPHIL [4]: 4.67%; NUCLEATED RED BLOOD CELLS [4]: 0 /100WBC; PLATELET COUNT [4]: 878 x10E3/uL; ALANINE AMINOTRANSFERASE [4]: 45.67 u/L; ALBUMIN [4]: 3.57 G/DL; ALKALINE PHOSPHATASE [4]: 214.33 u/L; ASPARTATE AMINOTRANSFERASE [4]: 96.33 u/L; BLOOD UREA NITROGEN [4]: 18 mg/dL; CARBON DIOXIDE [4]: 26.5 mmol/L; CHLORIDE [4]: 104.5 MEQ/L; CHOLESTEROL [4]: 69.5 mg/dL; CREATINE PHOSPHOKINASE [4]: 269.67 u/L; CREATININE [4]: 0.18 mg/dL; GLUCOSE [4]: 163 mg/dL; LACTATE DEHYDROGENASE [4]: 182.67 u/L; LIPASE [4]: 8 u/L; PHOSPHORUS [4]: 11.1 mg/dL; POTASSIUM [4]: 5.69 MEQ/L; SODIUM [4]: 146.25 MEQ/L; TOTAL BILIRUBIN [4]: 0.1 mg/dL; TOTAL PROTEIN [4]: 5.8 G/DL; URIC ACID [4]: 1.35 mg/dL
